Data on 14 compounds can be found in ChEMBL document CHEMBL5120836, “Discovery of novel 7,8-dihydropteridine-6(5H)-one-based DNA-PK inhibitors as potential anticancer agents via scaffold hopping strategy” (Eur J Med Chem, 2022).

In general, IC50 refers to the midpoint of a concentration-inhibition curve. Usually logP stands for the decadic logarithm of the partition coefficient of the neutral form, usually between octanol and water. By fraction unbound is commonly meant the share of the substance not bound to proteins or other matrix. The term Tmax denotes the time from dosing to the highest level. The Cmax is the maximum level reached in the sampled fluid or tissue. As a reminder, the AUC(0-inf) is the area under the concentration-time curve extrapolated to infinity. As usually defined, the MRT inf is a mean duration of stay, worked out from the concentration-time curve. As a reminder, the inhibition in vivo is the drop in the measured response relative to a control, in per cent.

Each structure is given as a SMILES string. Converted amounts (≈) assume the structure as drawn. The source made the active and inactive calls. No cut-off for these calls is given here.

Data set [1] concerns the target DNA-dependent protein kinase catalytic subunit (Homo sapiens, UniProt P78527). The experiment in a line: Inhibition of human native full length DNA-PK by ADP-Glo assay.
The subject of data set [2] is HCT-116. The data set can be described thus: Induction of apoptosis in human HCT-116 cells assessed as early apoptotic cells at 1 uM incubated for 24 hrs in presence of 100 nM doxorubicin by AnnexinV-FITC/PI staining based flow cytometry (reference value: 3.04%). Format: functional. A general note: Flow cytometry measures light scatter and fluorescence of single cells or particles in a stream.

The test system of data set [3] is HCT-116. The data set can be described thus: Induction of apoptosis in human HCT-116 cells assessed as viable cells at 1 uM incubated for 24 hrs in presence of 100 nM doxorubicin by AnnexinV-FITC/PI staining based flow cytometry (reference value: 93.9%). Particulars: read-out: Activity. In kind it is functional.
In data set [4] the test system is HCT-116. The data set can be described thus: Synergistic antiproliferative activity against human HCT-116 cells assessed as combination index at 1 uM in presence of 100 nM doxorubicin by MTT assay. In kind it is functional.
Data set [5] deals with HCT-116. The experiment in a line: Antiproliferative activity against human HCT-116 cells assessed as inhibition of cell growth incubated for 48 hrs by MTT assay. Particulars: HCT-116, 48 h. Format: functional, cell-based. A general note: Formazan colour is commonly taken as a measure of viable cells.
Data set [6] deals with HCT-116. The experiment in a line: Antiproliferative activity against human HCT-116 cells assessed as inhibition of cell growth incubated for 48 hrs in presence of 100 nM doxorubicin by MTT assay. In kind it is functional, cell-based. Particulars: HCT-116, 48 h.
The test system of data set [7] is HCT-116. The data set can be described thus: Induction of apoptosis in human HCT-116 cells assessed as viable cells at 1 uM incubated for 24 hrs by AnnexinV-FITC/PI staining based flow cytometry (reference value: 93.9%). Format: functional. Particulars: read-out: Activity.
Data set [8] relates to HCT-116. The experiment in a line: Disruption of mitochondrial function in human HCT-116 cells assessed as decrease in mitochondrial membrane potential by measuring proportion of cells with green fluorescence at 1 uM incubated for 24 hrs by JC-1 staining based flow cytometry (reference value: 0.566%). In kind it is functional. Also on record: scale not given: the % may be the effect or the level left.

Data set [9] deals with HCT-116. The data set can be described thus: Disruption of mitochondrial function in human HCT-116 cells assessed as decrease in mitochondrial membrane potential by measuring proportion of cells with red fluorescence at 1 uM incubated for 24 hrs by JC-1 staining based flow cytometry (reference value: 99.4%). Format: functional. Also on record: scale not given: the % may be the effect or the level left.

Data set [10] has as its system HCT-116. The experiment in a line: Induction of apoptosis in human HCT-116 cells assessed as early apoptotic cells at 1 uM incubated for 24 hrs by AnnexinV-FITC/PI staining based flow cytometry (reference value: 3.04%). In kind it is functional.
Data set [11] relates to HCT-116. The data set can be described thus: Induction of apoptosis in human HCT-116 cells assessed as late apoptotic cells at 1 uM incubated for 24 hrs by AnnexinV-FITC/PI staining based flow cytometry (reference value: 3.07%). Format: functional.
The test system of data set [12] is HCT-116. The data set can be described thus: Induction of apoptosis in human HCT-116 cells assessed as necrotic cells at 1 uM incubated for 24 hrs by AnnexinV-FITC/PI staining based flow cytometry (reference value: 0.031%). Format: functional.
Data set [13] relates to HCT-116. The data set can be described thus: Induction of apoptosis in human HCT-116 cells assessed as late apoptotic cells at 1 uM incubated for 24 hrs in presence of 100 nM doxorubicin by AnnexinV-FITC/PI staining based flow cytometry (reference value: 3.07%). Format: functional.
Data set [14] has as its system HCT-116. The experiment in a line: Induction of apoptosis in human HCT-116 cells assessed as necrotic cells at 1 uM incubated for 24 hrs in presence of 100 nM doxorubicin by AnnexinV-FITC/PI staining based flow cytometry (reference value: 0.031%). In kind it is functional.
The test system of data set [15] is HCT-116. The data set can be described thus: Induction of cell cycle arrest in human HCT-116 cells assessed as increase in accumulation of cells at […] at 1 uM incubated for 24 hrs in presence of 100 nM doxorubicin by PI staining based flow cytometry. Format: functional.
Data set [16] concerns HCT-116. The experiment in a line: Induction of cell cycle arrest in human HCT-116 cells assessed as increase in accumulation of cells at G2/M phase at 1 uM incubated for 24 hrs in presence of 100 nM doxorubicin by PI staining based flow cytometry. Format: functional.
Data set [17] is described as follows: Lipophilicity, logP of the compound. The conditions noted are these: octanol/water. In kind it is physicochemical.
Data set [18] in a line: Kinetic solubility of the compound in phosphate-buffered solution at pH 7.4 incubated for 24 hrs by HPLC-MS/MS analysis. In kind it is physicochemical. The conditions noted are these: phosphate buffer, read-out: Kinetic_solubility.
Data set [19] is described as follows: Kinetic solubility of the compound in phosphate-buffered solution at pH 6.4 incubated for 24 hrs by HPLC-MS/MS analysis. Format: physicochemical. Particulars: phosphate buffer, read-out: Kinetic_solubility.
The nature of data set [20]: Plasma protein binding in rat assessed as free fraction. In kind it is ADME, cell-free.
A short description of data set [21]: Plasma protein binding in human assessed as free fraction. Format: ADME, cell-free.
A short description of data set [22]: Tmax in Sprague-Dawley rat at 5 mg/kg, po. Format: ADME, organism-based. Particulars: in vivo.
The nature of data set [23]: Cmax in Sprague-Dawley rat at 5 mg/kg, po. Format: ADME, organism-based. Further details: dose 5 mg/kg, route po. The conditions noted are these: in vivo.
Data set [24] is described as follows: AUC (0 to infinity) in Sprague-Dawley rat at 5 mg/kg, po. Format: ADME, organism-based. Also on record: time infinity, dose 5 mg/kg, route po. Particulars: in vivo.
Data set [25] is described as follows: MRT (0 to infinity) in Sprague-Dawley rat at 5 mg/kg, po. Format: ADME, organism-based. Particulars: in vivo.
The test system of data set [26] is HL-60. The data set can be described thus: Synergistic antitumor activity against human HL-60 cells xenografted in BALB/c nude mouse assessed as tumor weight at 100 mg/kg, po qd for 16 days co-administered with doxorubicin (reference value: 27.9%). Format: functional. Particulars: HL-60, 384 h, time 16 day. (Xenograft models place foreign cells or tissue in a host animal.)

Data set [27] concerns HL-60. The experiment in a line: Synergistic antitumor activity against human HL-60 cells xenografted in BALB/c nude mouse assessed as tumor volume at 100 mg/kg, po qd for 16 days co-administered with doxorubicin (reference value: 32.2%). Format: functional. Particulars: HL-60, 384 h, time 16 day.
The nature of data set [28]: Toxicity in BALB/c nude mouse xenografted with human HL-60 cells assessed as effect on body weight at 100 mg/kg, po qd for 16 days. Format: organism-based. Particulars: in vivo, 384 h, time 16 day.
Data set [29] in a line: Toxicity in BALB/c nude mouse xenografted with human HL-60 cells assessed as effect on body weight at 100 mg/kg, po qd for 16 days co-administered with doxorubicin. In kind it is organism-based. The conditions noted are these: in vivo, 384 h, time 16 day.

DNA-dependent protein kinase catalytic subunit, sequence (P78527 whole entry): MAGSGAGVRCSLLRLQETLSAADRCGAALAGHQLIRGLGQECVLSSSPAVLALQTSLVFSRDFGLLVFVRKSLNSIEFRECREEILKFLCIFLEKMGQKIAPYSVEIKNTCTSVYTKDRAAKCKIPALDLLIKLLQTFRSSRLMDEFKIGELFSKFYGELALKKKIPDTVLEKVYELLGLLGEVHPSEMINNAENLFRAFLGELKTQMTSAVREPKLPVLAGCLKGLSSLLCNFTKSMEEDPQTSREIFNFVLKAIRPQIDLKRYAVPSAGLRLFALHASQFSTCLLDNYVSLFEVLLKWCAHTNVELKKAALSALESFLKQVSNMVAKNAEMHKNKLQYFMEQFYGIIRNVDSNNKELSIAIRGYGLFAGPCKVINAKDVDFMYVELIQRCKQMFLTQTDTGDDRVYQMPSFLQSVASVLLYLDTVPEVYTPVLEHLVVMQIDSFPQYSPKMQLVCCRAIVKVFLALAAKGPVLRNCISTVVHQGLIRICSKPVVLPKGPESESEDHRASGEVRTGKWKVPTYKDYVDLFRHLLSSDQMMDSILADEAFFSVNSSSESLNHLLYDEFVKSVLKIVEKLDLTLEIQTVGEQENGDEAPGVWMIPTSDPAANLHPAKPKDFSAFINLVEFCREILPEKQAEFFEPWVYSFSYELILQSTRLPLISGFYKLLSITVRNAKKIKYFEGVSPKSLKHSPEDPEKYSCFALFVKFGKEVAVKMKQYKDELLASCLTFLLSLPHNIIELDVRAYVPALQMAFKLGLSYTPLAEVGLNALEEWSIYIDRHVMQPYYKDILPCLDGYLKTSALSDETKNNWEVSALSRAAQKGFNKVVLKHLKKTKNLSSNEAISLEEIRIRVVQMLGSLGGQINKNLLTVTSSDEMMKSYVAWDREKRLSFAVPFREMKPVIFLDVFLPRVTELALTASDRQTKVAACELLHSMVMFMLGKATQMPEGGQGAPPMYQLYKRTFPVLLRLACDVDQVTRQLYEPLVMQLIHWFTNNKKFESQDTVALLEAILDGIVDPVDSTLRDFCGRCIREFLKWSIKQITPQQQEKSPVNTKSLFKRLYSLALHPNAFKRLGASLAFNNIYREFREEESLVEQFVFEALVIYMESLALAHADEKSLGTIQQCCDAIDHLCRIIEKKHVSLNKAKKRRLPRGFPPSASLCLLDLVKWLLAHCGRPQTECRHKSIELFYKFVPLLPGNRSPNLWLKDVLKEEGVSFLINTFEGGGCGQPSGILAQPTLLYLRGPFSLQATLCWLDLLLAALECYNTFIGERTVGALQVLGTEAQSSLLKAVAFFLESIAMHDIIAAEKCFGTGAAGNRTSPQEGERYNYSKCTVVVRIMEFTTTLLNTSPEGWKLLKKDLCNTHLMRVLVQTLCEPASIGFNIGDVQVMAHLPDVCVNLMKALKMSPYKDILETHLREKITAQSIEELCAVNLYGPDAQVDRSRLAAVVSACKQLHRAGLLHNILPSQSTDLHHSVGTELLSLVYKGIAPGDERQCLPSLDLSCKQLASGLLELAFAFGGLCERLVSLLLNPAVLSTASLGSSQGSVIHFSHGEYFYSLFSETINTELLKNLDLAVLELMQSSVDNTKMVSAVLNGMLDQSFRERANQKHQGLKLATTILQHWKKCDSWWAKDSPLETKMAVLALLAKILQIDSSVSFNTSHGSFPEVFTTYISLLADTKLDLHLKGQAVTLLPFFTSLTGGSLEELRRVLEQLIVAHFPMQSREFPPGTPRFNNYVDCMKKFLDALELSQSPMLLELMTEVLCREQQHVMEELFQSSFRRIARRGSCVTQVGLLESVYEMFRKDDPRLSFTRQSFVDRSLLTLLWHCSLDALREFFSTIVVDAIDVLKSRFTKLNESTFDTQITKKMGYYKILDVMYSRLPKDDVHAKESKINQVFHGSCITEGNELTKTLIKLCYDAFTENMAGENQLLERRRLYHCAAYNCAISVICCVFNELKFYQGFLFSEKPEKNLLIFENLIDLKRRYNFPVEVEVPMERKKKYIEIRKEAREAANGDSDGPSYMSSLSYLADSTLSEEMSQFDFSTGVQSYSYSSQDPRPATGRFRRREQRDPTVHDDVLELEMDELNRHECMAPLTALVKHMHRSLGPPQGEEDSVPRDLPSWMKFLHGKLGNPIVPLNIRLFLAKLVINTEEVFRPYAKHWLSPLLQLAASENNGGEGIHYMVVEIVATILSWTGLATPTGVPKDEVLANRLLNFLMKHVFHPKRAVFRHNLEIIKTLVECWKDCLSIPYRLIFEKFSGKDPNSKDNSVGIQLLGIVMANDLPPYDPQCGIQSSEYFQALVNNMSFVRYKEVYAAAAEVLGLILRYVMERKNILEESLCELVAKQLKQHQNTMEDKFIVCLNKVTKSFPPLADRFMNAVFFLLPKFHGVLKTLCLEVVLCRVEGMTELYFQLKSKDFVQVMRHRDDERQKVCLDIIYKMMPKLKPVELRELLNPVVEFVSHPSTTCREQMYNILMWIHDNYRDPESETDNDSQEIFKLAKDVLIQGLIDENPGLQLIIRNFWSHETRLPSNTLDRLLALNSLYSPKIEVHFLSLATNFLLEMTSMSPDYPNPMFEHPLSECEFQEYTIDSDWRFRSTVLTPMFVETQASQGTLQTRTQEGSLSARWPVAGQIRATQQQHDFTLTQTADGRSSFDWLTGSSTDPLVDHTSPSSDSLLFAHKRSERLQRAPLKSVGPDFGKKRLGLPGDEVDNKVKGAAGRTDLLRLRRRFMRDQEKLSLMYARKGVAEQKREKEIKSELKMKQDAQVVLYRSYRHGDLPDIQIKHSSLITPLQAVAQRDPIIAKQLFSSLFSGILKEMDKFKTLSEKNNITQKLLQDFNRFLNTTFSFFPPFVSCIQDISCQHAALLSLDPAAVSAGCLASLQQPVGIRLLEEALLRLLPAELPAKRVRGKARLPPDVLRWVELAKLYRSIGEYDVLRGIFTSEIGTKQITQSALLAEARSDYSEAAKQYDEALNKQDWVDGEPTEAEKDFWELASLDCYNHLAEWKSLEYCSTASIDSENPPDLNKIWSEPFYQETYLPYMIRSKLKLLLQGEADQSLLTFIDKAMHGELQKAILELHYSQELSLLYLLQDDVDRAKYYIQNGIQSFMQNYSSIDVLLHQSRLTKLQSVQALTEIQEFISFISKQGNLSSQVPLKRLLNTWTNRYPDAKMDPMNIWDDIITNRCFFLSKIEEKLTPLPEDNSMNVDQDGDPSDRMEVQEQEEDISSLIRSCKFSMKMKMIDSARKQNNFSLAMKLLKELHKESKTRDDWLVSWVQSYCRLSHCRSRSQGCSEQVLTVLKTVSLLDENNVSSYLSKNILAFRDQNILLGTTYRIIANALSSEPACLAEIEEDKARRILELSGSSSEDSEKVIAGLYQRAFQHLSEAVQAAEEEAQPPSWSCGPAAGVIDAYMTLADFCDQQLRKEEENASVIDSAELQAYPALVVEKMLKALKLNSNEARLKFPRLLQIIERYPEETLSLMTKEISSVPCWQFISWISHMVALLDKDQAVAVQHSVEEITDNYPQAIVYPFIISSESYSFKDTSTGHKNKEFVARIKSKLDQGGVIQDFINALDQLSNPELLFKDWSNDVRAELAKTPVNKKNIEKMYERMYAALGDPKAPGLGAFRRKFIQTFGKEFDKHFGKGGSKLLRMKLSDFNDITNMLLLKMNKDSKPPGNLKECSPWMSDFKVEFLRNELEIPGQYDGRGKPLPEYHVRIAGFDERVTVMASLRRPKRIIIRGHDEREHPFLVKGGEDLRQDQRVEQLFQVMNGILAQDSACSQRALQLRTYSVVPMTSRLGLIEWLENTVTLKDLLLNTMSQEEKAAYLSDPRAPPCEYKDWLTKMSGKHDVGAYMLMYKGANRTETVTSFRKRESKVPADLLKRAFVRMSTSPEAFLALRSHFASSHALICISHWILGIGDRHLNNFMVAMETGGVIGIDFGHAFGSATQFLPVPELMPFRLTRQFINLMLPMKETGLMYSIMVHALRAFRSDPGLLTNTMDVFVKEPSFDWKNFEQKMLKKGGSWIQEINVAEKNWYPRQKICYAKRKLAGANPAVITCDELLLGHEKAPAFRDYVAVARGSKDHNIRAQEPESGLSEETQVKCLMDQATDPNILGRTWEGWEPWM

`Cc1cc2ncnn2cc1Nc1ncc2c(n1)N(C1CCOCC1)CC(=O)N2`: in data set [1], the IC50 worked out at 7.06 nM.
The same measure, in the same setting: the value for `[2H]C([2H])([2H])N1C(=O)C2(CCOCC2)c2nc(Nc3cn4ncnc4cc3C)ncc21` was 126 nM; that for `Cc1cc2ncnn2cc1Nc1ncc2c(n1)C1(CCC(OCC(F)F)CC1)C(=O)N2C` (stereo unspecified) was 16.9 nM; that for `Cc1cc2ncnn2cc1Nc1ncc2c(n1)C1(CCOCC1)C(=O)N2C(C)C` was 220 nM.
In data set [1], `Cc1cc2ncccc2cc1Nc1ncc2c(n1)N(C1CCOCC1)CC(=O)N2C` gave an IC50 of 6.9 nM.
As for `Cc1cc2ncnn2cc1Nc1ncc2c(n1)n(C1CCOCC1)c(=O)n2C` [AZD-7648], the Activity in data set [2] was determined as 10.3%; in data set [8] it was 7.64%; in data set [9], 92.2%; in data set [10], 2.76%; in data set [11] it was 4.53%; in data set [12], 0.05%. Also, the Activity in data set [13] is recorded as 7.33%; in [14], 0.102%; in data set [16] it was 64.46%; in [28], “Non-Toxic”; in [29], “Non-Toxic”. The viability at 1 µM in data set [3] was determined as 82.3%; in [7], 92.7%. The CI in data set [4] is recorded as 0.79. The concentration for half-maximal inhibition (IC50) amounted to 35300 nM in [5] and 19500 nM in [6]. The outcome in data set [15] was Active. Besides, the logP in [17] turned out to be 1.2. Further, the solubility kinetic at 24 h worked out at 120 µg/mL (≈ 316 µM) in [18] and 101 µg/mL (≈ 266 µM) in data set [19]. The figures for the fraction unbound in data set [20] and in data set [21] were 0.653 and 0.834, respectively. Also, the Tmax in data set [22] stood at 0.83 h. In data set [23], this compound displayed a Cmax of 1500 ng/mL. This compound also displayed an AUC(0-inf) in data set [24] of 5240 ng·h/mL. Moreover, in data set [25], the MRT inf is 2.51 h. For the same compound, the values for the inhibition in vivo at 100 mg/kg in data set [26] and in data set [27] were 55.3% and 68.1%, respectively.
In [1], `Cc1cc2ncnn2cc1Nc1ncc2c(n1)C1(CCC1)C(=O)N2C` came in with an IC50 of 21.4 nM.
`CCN1C(=O)CN(C2CCOCC2)c2nc(Nc3cn4ncnc4cc3C)ncc21` had an IC50 in data set [1] of 3.37 nM.
The same measure, in the same setting: the value for `Cc1cc2ncnn2cc1Nc1ncc2c(n1)N(C1CCOCC1)CC(=O)N2C1CC1` was 6.76 nM; that for `Cc1cc2ncnn2cc1Nc1ncc2c(n1)N(C1CCOCC1)CC(=O)N2C(C)C` was 25.5 nM; that for `Cc1cc2nccnc2cc1Nc1ncc2c(n1)N(C1CCOCC1)CC(=O)N2C` was 3.26 nM.
Still for that read-out and setting: to `CCN1C(=O)C2(CCOCC2)c2nc(Nc3cn4ncnc4cc3C)ncc21` belongs 135 nM; to `Cc1cc2ncccc2cc1Nc1ncc2c(n1)C1(CCOCC1)C(=O)N2C`, 10.5 nM; to `Cc1cc2ncnn2cc1Nc1ncc2c(n1)C(C)(C)C(=O)N2C`, 47.9 nM.
